Data reported in US7285567B2, “Halogenated benzamide derivatives” (Romark Laboratories, L.C., priority 2005, dated 2007).
Read-outs that look alike come from different tables or passages of the source. Marks after values point to notes of the source that are not given here.

Experiments:
[1] = test system: Rotavirus: Simian Rotavirus SA-11; test: microbe, parasite or virus in culture; type: cell-based; conditions: Simian rotavirus SA-11, MA104 cell culture
Influenza A: PR8 strain = test: microbe, parasite or virus in culture; type: cell-based, Influenza A virus
[2] = test system: Paramyxovirus: Sendai virus; test: microbe, parasite or virus in culture; type: cell-based; conditions: Sendai virus, 37RC cell culture (Table 1)
[3] = test system: Coronavirus: canine coronavirus strain S-378; test: microbe, parasite or virus in culture; type: cell-based; conditions: canine coronavirus strain S-378, A72 cell culture
[4] = test system: Rhabdovirus: Vesicular stomatitis virus; test: microbe, parasite or virus in culture; type: cell-based
[5] = test system: Herpes Simplex type 1: strain F1; test: microbe, parasite or virus in culture; type: cell-based, Herpes Simplex virus type 1; conditions: Herpes Simplex type 1 strain F1, HEp-2 cell culture
Hepatitis B Virus (HBV) = test: HBV replication in 2.2.15 cell culture, 9-day assay; type: cell-based; conditions: for EC50 / EC90: Hepatitis B virus, 2.2.15 cells
Description: (§1) Anti-Hepatitis B Virus (HBV) analyses and an assessment of cytotoxicity were performed in a 9-day assay in the chronically-producing HBV human hepatoblastoma cell line, 2.2.15, as previously described (Korba, B. E. & Gerin, J. L. Use of a standardized cell culture assay to assess activities of nucleosides analogues against hepatitis B virus replication. Antivir. Res. 19, 55-70 (1992)).
(§2) Values presented (±standard deviations [S.D.]) were calculated by linear regression analysis using data combined from all treated cultures. S.D. were calculated using the standard error of regression generated from linear regression analyses (QuattroPro™). EC50, EC90=drug concentration at which a 2-fold, or a 10-fold depression of HBV DNA (relative to the average levels in untreated cultures), respectively, was observed, CC50=drug concentration at which a 2-fold depression of neutral red dye uptake (relative to the average levels in untreated cultures) was observed, The EC90 values were used for the calculation of the Selectivity Indexes [S.I.] since at least a 3-fold depression of HBV levels is typically required to achieve statistical significance in this assay system. HBV R.I.=intracellular HBV DNA replication intermediate.

[6] = Cytotoxicity in 2.2.15 cells (neutral red dye uptake); type: cell-based; conditions: human, 2-fold depression of neutral red dye uptake
Description: as §1, §2

[7] = test system: hepatitis C virus (HCV) replicon; test: HCV replication in AVA5 replicon cell culture, 3-day assay; type: cell-based; conditions: AVA5 cells; for EC50: 2-fold depression of HCV RNA; for EC90: 10-fold depression of HCV RNA
Description: (§3) Anti-Hepatitis C Virus (HCV) analyses and an assessment of cytotoxicity were performed in a 3-day assay in the HCV replicon-containing human hepatoblastoma cell line, AVA5 (Okuse, C., Rinaudo, J. A., Farrar, K., Wells, F. & Korba, B. E. Enhancement of antiviral activity against hepatitis C virus in vitro by interferon combination therapy. Antivir. Res. 65, 23-34 (2005)) as previously described (Blight, K. J., Kolykhalov, A. A. & Rice, C. M. Efficient initiation of HCV RNA replication in cell culture. Science 290, 1972-1974 (2000)).
(§4) Values presented (±standard deviations [S.D.]) were calculated by linear regression analysis using data combined from all treated cultures. S.D. were calculated using the standard error of regression generated from the linear regression analyses (QuattroPro™). EC50, EC90=drug concentration at which a 2-fold, or a 10-fold depression of HCV RNA (relative to the average levels in untreated cultures), respectively, was observed. CC50=drug concentration at which a 2-fold depression of neutral red dye uptake was observed relative to the average levels in untreated cultures. Selectivity index=CC50/EC50.

[8] = Cytotoxicity in AVA5 cells (neutral red dye uptake); type: cell-based, human; conditions: human, 2-fold depression of neutral red dye uptake
Description: as §3, §4

B. fragilis group = test: CLSI agar dilution MIC, anaerobic clinical isolates; type: cell-based; conditions: Bacteroides fragilis, B. fragilis gp (40 isolates), 48 h, 35° C.
Description: (§5) Methods. Recent clinical anaerobic isolates (2000 to date) comprised 40 B. fragilis group, 26 Prevotella/Porphyromonas, 28 fusobacteria, 16 anaerobic Gram positive cocci, 14 anaerobic Gram-positive non-sporeforming rods and 18 clostridia. CLSI agar dilution MIC methodology with enriched Brucella blood agar and inocula of 1×10^5 cfu/spot was used. Plates were incubated in an anaerobic glove box at 35° C. for 48 h. Results.

Prevotella/Porphyromonas = test: as above; type: cell-based; conditions: Prev/Porphy (26 isolates), 48 h
Description: as §5

fusobacteria = test: as above; type: cell-based; conditions: Fusobacteria (28 isolates), 48 h
Description: as §5

[9] = test system: anaerobic Gram positive cocci; test: as above; type: cell-based; conditions: Gram + cocci (16 isolates), 48 h
[10] = test system: anaerobic Gram-positive non-sporeforming rods; test: as above; type: cell-based; conditions: Gram + rods (14 isolates), 48 h
clostridia = test: organism not typed; type: cell-based; conditions: Clostridia (18 isolates), agar dilution, 48 h
[11] = test system: anaerobic bacteria (all 142 isolates); test: CLSI agar dilution MIC, all anaerobic clinical isolates; type: cell-based
AVA5 cells = test: Cytotoxicity in AVA5 cells (neutral red dye uptake); type: cell-based, human; conditions: neutral red dye uptake, values for interferon
Description: as §3, §4

[12] = All (142 isolates), agar dilution, 48 h

Molecule: Cc1cccc(C(=O)Nc2ncc(Br)s2)c1O [RM-4819, 2-(hydroxy)-3-methyl-N-(5-bromo-2-thiazolyl)benzamide]
- EC50 ([1]; Rotavirus A): 0.3 µM
- SI (selectivity index) = CC50/EC50 ([1]; CC50 by MTT): > 500
- SI (selectivity index) = CC50/EC50 (Influenza A: PR8 strain; Influenza A PR8 strain, MDCK cell culture, CC50 by MTT): > 17
- EC50 (Influenza A: PR8 strain; Influenza A virus, PR8, MDCK): 9.6 µM
- EC50 ([2]; Respirovirus muris): 1.3 µM
- SI (selectivity index) = CC50/EC50 ([2]; CC50 by MTT): > 125
- EC50 ([3]; Alphacoronavirus 1, A-72): 4.9 µM
- SI (selectivity index) = CC50/EC50 ([3]; CC50 by MTT): > 33
- EC50 ([4]; MA104): 1.6 µM
- SI (selectivity index) = CC50/EC50 ([4]; MA104 cell culture, CC50 by MTT): > 100
- SI (selectivity index) = CC50/EC50 ([5]; CC50 by MTT): > 250
- EC50 ([5]; Human alphaherpesvirus 1): 0.6 µM
- EC50 (Hepatitis B Virus (HBV); 2-fold depression of HBV DNA, read-out: Extracellular Virion DNA EC50): 3.5 ± 0.5 µM
- EC90 (Hepatitis B Virus (HBV); 10-fold depression of HBV DNA, read-out: Extracellular Virion DNA EC90): 9 ± 0.8 µM
- EC50 (Hepatitis B Virus (HBV); intracellular HBV DNA replication intermediate, 2-fold depression, read-out: Intracellular HBV R.I. EC50): 7.6 ± 0.9 µM
- EC90 (Hepatitis B Virus (HBV); intracellular HBV DNA replication intermediate, 10-fold depression, read-out: Intracellular HBV R.I. EC90): 22 ± 2.6 µM
- Selectivity Index R.I. (Hepatitis B Virus (HBV); calculated with EC90 values (CC50/EC90), HBV R.I.): >46
- Selectivity Index Virion (Hepatitis B Virus (HBV); calculated with EC90 values (CC50/EC90), virion DNA): >111
- CC50 at 9 day [6]: > 1000 µM
- Selectivity Index ([7]; CC50/EC50): 18
- EC50 ([7]; Hepatitis C virus, read-out: EC50): 8.9 ± 0.7 µM
- EC90 ([7]; Hepatitis C virus, read-out: EC90): 79 ± 8.2 µM
- CC50 at 3 day [8]: 164 ± 18 µM
- MIC50 (B. fragilis group): > 32 µg/mL
- MIC90 (B. fragilis group): > 32 µg/mL
- MIC50 (Prevotella/Porphyromonas): > 32 µg/mL
- MIC90 (Prevotella/Porphyromonas): > 32 µg/mL
- MIC50 (fusobacteria): > 32 µg/mL
- MIC90 (fusobacteria): > 32 µg/mL
- MIC50 [9]: > 32 µg/mL
- MIC90 [9]: > 32 µg/mL
- MIC50 [10]: > 32 µg/mL
- MIC90 [10]: > 32 µg/mL
- MIC50 (clostridia; read-out: MIC50): > 32 µg/mL
- MIC90 (clostridia; read-out: MIC90): > 32 µg/mL
- MIC50 [11, 12]: > 32 µg/mL
- MIC90 [11, 12]: > 32 µg/mL
- Activity against anaerobic bacteria groups (summary in words) ([11]; summary of MIC results): without significant activity

Molecule: ∝ - Interferon
- EC50 ([7]; values for interferon): 2.2 ± 0.2 IU/ml
- EC90 ([7]; values for interferon): 8.5 ± 0.6 IU/ml
- CC50 (AVA5 cells): >10,000*^§ IU/ml
